Measurements as given in patent publication US20250380696A1, “METHOD FOR CONTROLLING UNDESIRED PLANTS AND PROMOTING GROWTH OF USEFUL PLANTS” (ISHIHARA SANGYO KAISHA, LTD., priority 2022, published 2025).

Key:
Assay type in all cases: in vivo
[1] = test system: goosegrass (Eleusine indica); experiment: (11) Herbicidal effect test, pot, spray at 7.0 to 8.3 leaf stage; conditions: 3rd day after spraying
Text: (§1) [formula] • X: growth inhibition rate when treated with α (g/ha) of compound A, • Y: growth inhibition rate when treated with β (g/ha) of compound B, • E: growth inhibition rate expected when treated with α (g/ha) of compound A and β (g/ha) of compound B (expected value).
Upland soil was put in a 1/1,000,000 hectare pot, and seeds of goosegrass (Eleusine indica) were sown. When goosegrass reached 7.0 to 8.3 leaf stage, a water-based suspension containing tiafenacil as the active ingredient, prepared by a conventional method for preparing a water-based suspension, and a wettable powder containing tri-allate as the active ingredient, prepared by a conventional method for preparing a wettable powder, an emulsifiable concentrate containing pethoxamid as the active ingredient (tradename: Successor 600, manufactured by Stähler Suisse SA) or an emulsifiable concentrate containing dimethenamid-P as the active ingredient (tradename: Fieldstar P emulsifiable concentrate, manufactured by BASF) were diluted with water (in an amount corresponding to 200 liter per hectare) containing 0.5 vol % of an agricultural spreader (tradename: Destiny HC, manufactured by Winfield Solutions, LLC.) and sprayed by a small spray gun (model: W-101-132G, manufactured by ANEST IWATA Corporation). On the 3rd day after spraying, the state of growth of the goosegrass was visually observed, and the growth inhibition rate (%) was obtained in accordance with the evaluation standards described in the above (1) herbicidal effect test, and the results are shown in Table 11. Further, the expected value of the growth inhibition rate (%) was calculated in accordance with the Colby's formula described in the above (1) herbicidal effect test, and the results are also shown in Table 11.

[2] = test system: soybean (cultivar: Enrei); experiment: (23) Plant growth promotion effect test (soybean), Italian ryegrass sown, seed weight; conditions: 97th day after the sowing
Text: Upland soil was put in a 1/200,000 hectare pot, and seeds of Italian ryegrass (Lolium multiflorum) were sown. When the Italian ryegrass reached 2.5 to 3.0 leaf stage, a water-based suspension containing tiafenacil as the active ingredient, prepared by a conventional method for preparing a water-based suspension, and an emulsifiable concentrate containing S-metolachlor as the active ingredient (tradename: Dual Gold, manufactured by Syngenta), a wettable powder containing metribuzin as the active ingredient (tradename: SENCOR wettable powder, manufactured by Bayer Crop Science), water dispersible granules containing pyroxasulfone as the active ingredient (tradename: Sakura, manufactured by Bayer Crop Science), a wettable powder containing tri-allate as the active ingredient, prepared by a conventional method for preparing a wettable powder, an emulsifiable concentrate containing pethoxamid as the active ingredient (tradename: Successor 600, manufactured by Stähler Suisse SA) or an emulsifiable concentrate containing dimethenamid-P as the active ingredient (tradename: Fieldstar P emulsifiable concentrate, manufactured by BASF) were diluted with water (in an amount corresponding to 200 liter per hectare) containing 0.5 vol % of an agricultural spreader (tradename: Destiny HC, manufactured by Winfield Solutions, LLC.) and sprayed by a small spray gun (model: W-101-132G, manufactured by ANEST IWATA Corporation). Seeds of soybean (cultivar: Enrei, manufactured by Asahi Noen Seed Co., Ltd.) were sown in the pot after spraying and the soybean was cultivated. On the 97th day after the sowing, seeds were collected from the grown soybean, and their weight was measured to obtain the total weight.

[3] = test system: soybean (cultivar: Enrei); experiment: (24) Plant growth promotion effect test (soybean), undesired plants not sown; conditions: 48th day after the sowing, above-ground part
Text: Upland soil was put in a 1/500,000 hectare pot, and a water-based suspension containing tiafenacil as the active ingredient, prepared by a conventional method for preparing a water-based suspension, and an emulsifiable concentrate containing S-metolachlor as the active ingredient (tradename: Dual Gold, manufactured by Syngenta), a wettable powder containing metribuzin as the active ingredient (tradename: SENCOR wettable powder, manufactured by Bayer Crop Science), water dispersible granules containing pyroxasulfone as the active ingredient (tradename: Sakura, manufactured by Bayer Crop Science), a wettable powder containing tri-allate as the active ingredient, prepared by a conventional method for preparing a wettable powder, an emulsifiable concentrate containing pethoxamid as the active ingredient (tradename: Successor 600, manufactured by Stähler Suisse SA) or an emulsifiable concentrate containing dimethenamid-P as the active ingredient (tradename: Fieldstar P emulsifiable concentrate, manufactured by BASF) were diluted with water (in an amount corresponding to 200 liter per hectare) containing 0.5 vol % of an agricultural spreader (tradename: Destiny HC, manufactured by Winfield Solutions, LLC.) and sprayed by a small spray gun (model: W-101-132G, manufactured by ANEST IWATA Corporation). Seeds of soybean (cultivar: Enrei, manufactured by Asahi Noen Seed Co., Ltd.) were sown in the pot after spraying. On the 48th day after the sowing, the above-ground part of the soybean was reaped, and its weight was measured to obtain the total weight.

[4] = test system: Italian ryegrass (Lolium multiflorum); experiment: (8) Herbicidal effect test, pot, spray at 3.0 to 3.1 leaf stage; conditions: 4th day after spraying
Text: as §1
Upland soil was put in a 1/1,000,000 hectare pot, and seeds of Italian ryegrass (Lolium multiflorum) were sown. When Italian ryegrass reached 3.0 to 3.1 leaf stage, a water-based suspension containing tiafenacil as the active ingredient, prepared by a conventional method for preparing a water-based suspension, and an emulsifiable concentrate containing S-metolachlor as the active ingredient (tradename: Dual Gold, manufactured by Syngenta), a wettable powder containing metribuzin as the active ingredient (tradename: SENCOR wettable powder, manufactured by Bayer Crop Science) or water dispersible granules containing pyroxasulfone as the active ingredient (tradename: Sakura, manufactured by Bayer Crop Science) were diluted with water (in an amount corresponding to 200 liter per hectare) containing 0.5 vol % of an agricultural spreader (tradename: Destiny HC, manufactured by Winfield Solutions, LLC.) and sprayed by a small spray gun (model: W-101-132G, manufactured by ANEST IWATA Corporation). On the 4th day after spraying, the state of growth of the Italian ryegrass was visually observed, and the growth inhibition rate (%) was obtained in accordance with the evaluation standards described in the above (1) herbicidal effect test, and the results are shown in Table 8. Further, the expected value of the growth inhibition rate (%) was calculated in accordance with the Colby's formula described in the above (1) herbicidal effect test, and the results are also shown in Table 8.

CC(C)N(C(=O)SCC(Cl)=C(Cl)Cl)C(C)C [tri-allate]
inhibition at 75 g/ha ([1]; Eleusine indica, Dose 75 g/ha, read-out: Growth inhibition rate (%) Measured value): 0% | inhibition at 625 g/ha ([1]; Eleusine indica, Dose 625 g/ha, read-out: Growth inhibition rate (%) Measured value): 0% | inhibition at 1250 g/ha ([1]; Eleusine indica, Dose 1250 g/ha, read-out: Growth inhibition rate (%) Measured value): 5% | Total weight (g) of soybean seeds ([2]; Dose 625 g/ha): 17.0 g | Raw weight (g) of soybean ([3]; Dose 200 g/ha): 18.2 g

Cn1nc(C(F)(F)F)c(CS(=O)(=O)C2=NOC(C)(C)C2)c1OC(F)F [pyroxasulfone]
inhibition at 188 g/ha ([4]; Lolium multiflorum, Dose 188 g/ha, read-out: Growth inhibition rate (%) Measured value): 10% | inhibition at 375 g/ha ([4]; Lolium multiflorum, Dose 375 g/ha, read-out: Growth inhibition rate (%) Measured value): 20% | Total weight (g) of soybean seeds ([2]; Dose 125 g/ha): 15.6 g | Raw weight (g) of soybean ([3]; Dose 37.5 g/ha): 30.0 g

CCOCCN(C(=O)CCl)C(=C(C)C)c1ccccc1 [pethoxamid]
Growth inhibition rate (%) Measured value ([1]; Dose 93.8 g/ha): 0% | Growth inhibition rate (%) Measured value ([1]; Dose 375 g/ha): 0% | Growth inhibition rate (%) Measured value ([1]; Dose 750 g/ha): 0% | Total weight (g) of soybean seeds ([2]; Dose 750 g/ha): 11.0 g | Raw weight (g) of soybean ([3]; Dose 200 g/ha): 26.7 g

COC(=O)CCNC(=O)C(C)Sc1cc(-n2c(=O)cc(C(F)(F)F)n(C)c2=O)c(F)cc1Cl (stereo not shown) [tiafenacil]
Growth inhibition rate (%) Measured value ([4]; Dose 6.25 g/ha): 20% | Growth inhibition rate (%) Measured value ([1]; Dose 6.25 g/ha): 77% | Total weight (g) of soybean seeds ([2]; Dose 12.5 g/ha): 14.3 g | Raw weight (g) of soybean ([3]; Dose 3 g/ha): 28.3 g

CSc1nnc(C(C)(C)C)c(=O)n1N [metribuzin]
inhibition at 125 g/ha ([4]; Lolium multiflorum, Dose 125 g/ha, read-out: Growth inhibition rate (%) Measured value): 3% | inhibition at 438 g/ha ([4]; Lolium multiflorum, Dose 438 g/ha, read-out: Growth inhibition rate (%) Measured value): 10% | inhibition at 750 g/ha ([4]; Lolium multiflorum, Dose 750 g/ha, read-out: Growth inhibition rate (%) Measured value): 20% | inhibition at 938 g/ha ([4]; Lolium multiflorum, Dose 938 g/ha, read-out: Growth inhibition rate (%) Measured value): 33% | Total weight (g) of soybean seeds ([2]; Dose 18.75 g/ha): 14.2 g | Raw weight (g) of soybean ([3]; Dose 150 g/ha): 16.1 g

COC[C@H](C)N(C(=O)CCl)c1c(C)csc1C [dimethenamid-P]
Growth inhibition rate (%) Measured value ([1]; Dose 60 g/ha): 0% | Growth inhibition rate (%) Measured value ([1]; Dose 375 g/ha): 0% | Growth inhibition rate (%) Measured value ([1]; Dose 750 g/ha): 0% | Total weight (g) of soybean seeds ([2]; Dose 750 g/ha): 14.1 g | Raw weight (g) of soybean ([3]; Dose 150 g/ha): 28.9 g

CCc1cccc(C)c1N(C(=O)CCl)[C@@H](C)COC [S-metolachlor]
Growth inhibition rate (%) Measured value ([4]; Dose 281 g/ha): 7% | Growth inhibition rate (%) Measured value ([4]; Dose 500 g/ha): 10% | Growth inhibition rate (%) Measured value ([4]; Dose 625 g/ha): 13% | Total weight (g) of soybean seeds ([2]; Dose 750 g/ha): 12.7 g | Raw weight (g) of soybean ([3]; Dose 75 g/ha): 27.1 g
